Laboratory results reported in patent publication US12685320B2, “Food processing oxidation treatment forumlations and methods” (Clean Chemistry, Inc., priority 2023, dated 2026).

Key:
Salmonella spp. = assay: Poultry chiller tank (pre-chiller and red water main chiller): Salmonella on inoculated poultry thighs; assay type: cell-based, S. Infantis, S. Typhimurium, S. Enteritidis; conditions: for Recovered average Log10 CFU/g: pH>8.5
Method: (§1) A standardized test was conducted to compare the antimicrobial efficacy, residual decay, and effect on solution pH of peracetate and peracetic acid in reducing Salmonella spp. on poultry as a processing method directed to control microbial growth or inactivate microorganisms in food products during processing to lower risk of foodborne pathogens or spoilage microorganisms. The objective of this study was to determine the efficacy of peracetate and peracetic acid treatments for reducing Salmonella spp. on poultry thighs in a treatment bath under conditions simulating pre-chiller and red water main chiller applications. To mimic these applications in a poultry processing facility, target concentrations were determined to be 150 ppm of either peracetate (as PAA equivalents) or peracetic acid in the simulated pre-chiller application and 75 ppm of either peracetate (as PAA equivalents) or peracetic acid in the simulated red water main chiller application. Both applications targeted a pH>8.5 to simulate the intentional alkalinity of chillers in poultry processing facilities.
(§2) The pH, temperature, and residual antimicrobial concentration (measured as either peracetate or peracetic acid) were monitored through the duration of both applications. […]
The inoculum used in this study was prepared from three reference strains of Salmonella: S. Infantis (Reference Strain ID: ATCC 51741), S. Typhimurium (Reference Strain ID: ATCC 13311), and S. Enteritidis (Reference Strain ID: ATCC 13076). […] Colonies from each strain were placed into individual tubes of buffered peptone water (BPW) determined using a spectrophotometer (ThermoFisher Scientific, 1700/0512). […] Post incubation, colonies were counted, and log transformed reported. […]
Prior to inoculation, the average weight of the poultry thighs used in this study was determined to be 150 grams. […]

[1] = Poultry chiller tank: residual decay and odor of antimicrobial baths; assay type: physicochemical
Method: as §1, with “Both applications targeted a pH>8.5 to simulate the intentional alkalinity of chillers in poultry processing facilities.” left out
as §2
During the pre-chiller and main chiller treatments, the temperature, pH, and antimicrobial concentrations were monitored and recorded every 10 minutes. […] After incubating, colonies were counted, and log transformed.

CC(=O)OO [peracetic acid]
Recovered average Log10 CFU/g (Salmonella spp.; main chiller treatment (after pre-chiller), target 75 ppm, untreated main chiller control 4.13): 3.45 Log10 CFU/g
difference in antimicrobial effectiveness of peracetic acid and peracetate (Salmonella spp.; pre-chiller and main chiller): No significant difference
Recovered average Log10 CFU/g (Salmonella spp.; pre-chiller treatment, target 150 ppm, untreated 5.46, untreated pre-chiller control 4.76): 3.65 Log10 CFU/g
additional antimicrobial required to maintain minimum concentration ([1]; pre-chiller application): 13.0 mL
additional antimicrobial required to maintain minimum concentration ([1]; red water main chiller application): 26.0 mL
